Here are results for 18 molecules from patent US20240208912A1 (Mirati Therapeutics, Inc., priority 2021, published 2024).

The target in assay [1] is T1, PRMT5/MEP50 complex (Homo sapiens, UniProt O14744).
T1 construct: purchased Reaction Biology Corporation
The assay can be described thus: PRMT5:MEP50 HotSpot Assay (full-length histone H2A substrate, plus and minus MTA). The format is biochemical. The settings on record: IC50 + 2 μM MTA, in the presence of 2 μM MTA. In outline:
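Radiometric HotSpot format using recombinant full-length histone H2A as substrate, run with and without MTA. Reactions were stopped and spotted onto filter paper. Tritiated H2A was quantified by scintillation counting.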

The subject of assay [2] is HCT116 homozygous MTAP knockout cells. The assay can be described thus: Proliferation assay (CellTiter-Glo, 10 days) in HCT116 homozygous MTAP knockout cells. The format is cell-based. The note with it: CellTiter-Glo after 10 days of treatment, read-out: Proliferation IC50 (nM) HCT116 MTAP_KO. Put shortly: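 MTAP-null HCT116 clone made by CRISPR/Cas9 knockout of both alleles, tested beside parental cells. Cells dosed the day after seeding, split 1:10 on day 6 into fresh medium with the same compound level, and read on day 11 by CellTiter-Glo. IC50 taken after 10 days of exposure.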
On the technique in general: In ATP-based viability assays light output follows the ATP content of the culture.

For assay [3], the system named is PRMT5-dependent Symmetric Di-methyl Arginine signal in HCT116 homozygous MTAP Knockout cells. Description: SYM11 In-Cell Western in HCT116 homozygous MTAP knockout cells. The settings on record: 4 days of treatment, SYM11/DRAQ5 ratio as percent of DMSO control, read-out: In-cell-Western (SYM11) IC50 (nM) HCT116 MTAP_KO. The format is cell-based. How it is done:
HCT116 cells were genetically engineered to knock out the function of both MTAP alleles using a CRISPR/Cas9 system and an sgRNA targeting the MTAP gene. Following Cas9/MTAP sgRNA transduction, clones were screened to confirm that each allele of the MTAP gene had been inactivated (i.e., homozygous MTAP knock out) creating an MTAP-deficient cell.
Control samples were analyzed in parallel.
Briefly, on Day 0, 2,000 HCT116 parental or HCT116 homozygous MTAP knockout cells were seeded in 96 well plates in McCoy's 5A supplemented with 10% fetal bovine serum and pen/strep and the cells were incubated overnight at 37° C. plus 5% CO2. The following day, cells were treated with DMSO vehicle control or a dose response of PRMT5 inhibitors, and incubated at 37° C. plus 5% CO^2 for four days.
After 4 days of treatment, the cells were fixed by adding 50 μl of 4% paraformaldehyde solution to each well and the cells were incubated for 20 min at room temperature. The paraformaldehyde solution was removed, 150 μl of ice-cold methanol was added and the plate was placed −20° C. for 10 minutes. The methanol was removed, 150 μl of Odyssey Blocking buffer+0.05% Tween20 was added and the plate was incubated at room temperature with shaking for one hour.
The primary SYM11 antibody solution was removed by aspiration and the wells were washed three consecutive times with phosphate buffered saline containing 0.1% Tween-20 (PBST).
The secondary antibody solution was removed by aspiration and the wells were washed three consecutive times with PBST.
The SYM11 signal and the DRAQ5 signal were quantified using a Li-Cor Odyssey machine reading at […], respectively. The SYM11/DRAQ5 ratio was used to calculate the inhibition of Symmetric Dimethyl Arginine as percent of DMSO control.

Read-outs that look alike come from different tables or passages of the source. Where only a bound is given, the exact number is not on record here.

T1 sequence (O14744 2-637 limits assumed): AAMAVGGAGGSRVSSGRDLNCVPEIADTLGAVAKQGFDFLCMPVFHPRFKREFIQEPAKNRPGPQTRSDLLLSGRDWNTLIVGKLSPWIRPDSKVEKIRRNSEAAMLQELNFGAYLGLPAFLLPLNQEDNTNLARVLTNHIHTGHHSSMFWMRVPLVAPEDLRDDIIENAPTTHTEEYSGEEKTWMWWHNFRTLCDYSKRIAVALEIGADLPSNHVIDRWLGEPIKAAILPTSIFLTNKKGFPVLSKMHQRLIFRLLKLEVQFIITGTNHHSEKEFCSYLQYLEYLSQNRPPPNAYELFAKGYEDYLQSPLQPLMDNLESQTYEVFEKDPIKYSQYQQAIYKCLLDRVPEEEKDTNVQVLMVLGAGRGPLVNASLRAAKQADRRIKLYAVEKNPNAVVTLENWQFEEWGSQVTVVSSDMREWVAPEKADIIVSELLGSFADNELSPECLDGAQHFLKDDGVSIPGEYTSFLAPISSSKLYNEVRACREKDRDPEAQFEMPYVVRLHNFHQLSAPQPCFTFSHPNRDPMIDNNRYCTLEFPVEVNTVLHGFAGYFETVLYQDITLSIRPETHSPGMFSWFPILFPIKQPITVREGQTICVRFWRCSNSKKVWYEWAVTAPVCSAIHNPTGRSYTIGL
T1 sequence (Q9BQA1 2-342 partner limits assumed): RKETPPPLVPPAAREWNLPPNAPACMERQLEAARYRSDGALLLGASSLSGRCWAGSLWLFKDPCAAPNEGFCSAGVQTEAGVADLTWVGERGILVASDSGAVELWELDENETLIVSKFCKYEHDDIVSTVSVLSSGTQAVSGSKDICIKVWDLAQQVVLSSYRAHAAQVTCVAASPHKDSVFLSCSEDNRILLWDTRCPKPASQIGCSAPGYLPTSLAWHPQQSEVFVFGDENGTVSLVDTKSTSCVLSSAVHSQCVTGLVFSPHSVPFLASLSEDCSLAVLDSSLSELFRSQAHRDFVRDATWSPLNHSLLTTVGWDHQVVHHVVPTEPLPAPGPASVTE

As to `Cn1ncc(-c2ccc3c(=O)[nH]nc(CN)c3c2)c1-c1c(F)c(Cl)c2ccccc2c1C#N` (single isomer, unassigned) [Example 16-10, (M)-2-[4-[4-(aminomethyl)-1-oxo-2H-phthalazin-6-yl]-2-methyl-pyrazol-3-yl]-4-chloro-3-fluoro-naphthalene-1-carbonitrile], the IC50 in assay [1] was found to be 15.8 nM; in assay [2], 10 nM; in assay [3] it was 3 nM.

Take `Cc1cc(-c2cnn(C)c2-c2c(C#N)cc3ccccc3c2Cl)cc2c(CN)n[nH]c(=O)c12` (single isomer, unassigned) [Example 16-51, (P)-3-[4-[4-(aminomethyl)-8-methyl-1-oxo-2H-phthalazin-6-yl]-2-methyl-pyrazol-3-yl]-4-chloro-naphthalene-2-carbonitrile]: the IC50 in assay [1] stood at 261 nM; in assay [2], 706 nM; in assay [3], 6 nM.

`Cc1cc(-c2cnn(C)c2-c2c(F)ccc(OC3CC3)c2C#N)cc2c(CN)n[nH]c(=O)c12` (atropisomer, axis not shown; (P)) [Example 16-47, (P)-2-[4-[4-(aminomethyl)-8-methyl-1-oxo-2H-phthalazin-6-yl]-2-methyl-pyrazol-3-yl]-6-(cyclopropoxy)-3-fluoro-benzonitrile]: the IC50 was 304 nM in assay [1]; 51 nM in assay [2]; 11 nM in assay [3] (Homo sapiens, HCT-116, 96 h).

In the case of `CCn1cccc(-c2c(-c3ccc4c(=O)[nH]nc(CN)c4c3)cnn2C)c1=O` [Example 4-255, 4-(aminomethyl)-6-(5-(1-ethy1-2-oxo-1,2-dihydropyridin-3-yl)-1-methyl-1H-pyrazol-4-yl)phthalazin-1(2H)-one], the IC50 in assay [1] is 9620 nM; in assay [2] (Homo sapiens, HCT-116, 240 h), 1630 nM; in assay [3] (Homo sapiens, HCT-116, 96 h), 955 nM.

For the molecule `Cn1ncc(-c2cc(Cl)c3c(=O)[nH]nc(CN)c3c2)c1-c1c(C#N)cc2ccccc2c1Cl` (single isomer, unassigned) [Example 16-64, (M)-3-[4-[4-(aminomethyl)-8-chloro-1-oxo-2H-phthalazin-6-yl]-2-methyl-pyrazol-3-yl]-4-chloro-naphthalene-2-carbonitrile], the IC50 in assay [1] was determined as 23.3 nM; in assay [2], 17 nM; in assay [3] it was 13 nM.

Take `Cn1ncc(-c2cc(Cl)c3c(=O)[nH]nc(CN)c3c2)c1-c1sc2ccccc2c1C#N` [Example 10-22, 2-(4-(4-(aminomethyl)-8-chloro-1-oxo-1,2-dihydrophthalazin-6-yl)-1-methyl-1H-pyrazol-5-yl)benzo[b]thiophene-3-carbonitrile]: the IC50 turned out to be 86.8 nM in assay [1]; 52 nM in assay [2] (Homo sapiens, HCT-116, 240 h); 17 nM in assay [3] (Homo sapiens, HCT-116, 96 h).

Take `Cc1c(F)c(-c2c(-c3cc(C)c4c(=O)[nH]nc(CN)c4c3)cnn2C)c(C#N)c2ccccc12` (single isomer, unassigned) [Example 16-42, (M)-2-[4-[4-(aminomethyl)-8-methyl-1-oxo-2H-phthalazin-6-yl]-2-methyl-pyrazol-3-yl]-3-fluoro-4-methyl-naphthalene-1-carbonitrile]: the values for the IC50 in assay [1], in assay [2] and in assay [3] were 4.55 nM, 7 nM and 6 nM, respectively.

In the case of `Cn1ncc(-c2ccc3c(=O)[nH]nc(CN)c3c2)c1-c1sc2ccc(Cl)cc2c1C#N` [Example 4-262, 2-[4-[4-(aminomethyl)-1-oxo-2H-phthalazin-6-yl]-2-methyl-pyrazol-3-yl]-5-chloro-benzothiophene-3-carbonitrile], the IC50 in assay [1] turned out to be 108 nM; in assay [2] (Homo sapiens, HCT-116, 240 h) it was 281 nM; in assay [3] (Homo sapiens, HCT-116, 96 h), 98 nM.

Regarding `Cc1c(F)c(-c2c(-c3cc(C)c4c(=O)[nH]nc(CN)c4c3)cnn2C)c(C#N)c2ccccc12` (single isomer, unassigned) [Example 16-41, (P)-2-[4-[4-(aminomethyl)-8-methyl-1-oxo-2H-phthalazin-6-yl]-2-methyl-pyrazol-3-yl]-3-fluoro-4-methyl-naphthalene-1-carbonitrile], the IC50 in assay [1] is 640 nM; in assay [2], 290 nM; in assay [3] it was 246 nM.

Consider `Cn1ncc(-c2ccc3c(=O)[nH]nc(CN)c3c2)c1-c1c(C#N)cc2ccccc2c1Cl` (single isomer, unassigned) [Example 16-5], for which the IC50 in assay [1] came to 994 nM; in assay [2], 2850 nM; in assay [3], 272 nM.

For the molecule `Cn1ncc(-c2cc(Cl)c3c(=O)[nH]nc(CN)c3c2)c1-c1c(F)ccc(OC2CC2)c1C#N` (atropisomer, axis not shown; (P)) [Example 16-55, (P)-2-[4-[4-(aminomethyl)-8-chloro-1-oxo-2H-phthalazin-6-yl]-2-methyl-pyrazol-3-yl]-6-(cyclopropoxy)-3-fluoro-benzonitrile], the IC50 in assay [1] turned out to be 260 nM; in assay [2], 77 nM; in assay [3] it was 57 nM.

Turning to `Cn1ncc(-c2ccc3c(=O)[nH]nc(CN)c3c2)c1-c1csc2cccc(=O)n12` [Example 4-267, 3-[4-[4-(aminomethyl)-1-oxo-2H-phthalazin-6-yl]-2-methyl-pyrazol-3-yl] thiazolo[3,2-a]pyridin-5-one], the IC50 in assay [1] came to 6140 nM; in assay [2] (Homo sapiens, HCT-116, 240 h), 10000 nM; in assay [3] (Homo sapiens, HCT-116, 96 h) it was 1000 nM.

`Cn1ncc(-c2cc(Cl)c3c(=O)[nH]nc(CN)c3c2)c1-c1c(F)ccc(OC2CC2)c1C#N` (atropisomer, axis not shown; (M)) [Example 16-56, (M)-2-[4-[4-(aminomethyl)-8-chloro-1-oxo-2H-phthalazin-6-yl]-2-methyl-pyrazol-3-yl]-6-(cyclopropoxy)-3-fluoro-benzonitrile]: the IC50 in assay [1] came out at 113 nM; in assay [2] it was 22 nM; in assay [3], 9 nM.

Consider `Cn1ncc(-c2ccc3c(=O)[nH]cc(CN)c3c2)c1-c1ccc2ccccc2c1C#N` [Example 18-2, 2-[4-[4-(aminomethyl)-1-oxo-2H-isoquinolin-6-yl]-2-methyl-pyrazol-3-yl]naphthalene-1-carbonitrile], for which the IC50 in assay [1] was 2930 nM; in assay [2] (Homo sapiens, HCT-116, 240 h), 2870 nM; in assay [3] (Homo sapiens, HCT-116, 96 h), greater than 1000 nM.

As to `Cc1cc(-c2cnn(C)c2-c2c(F)c(Cl)cc(OC3CC3)c2C#N)cc2c(CN)n[nH]c(=O)c12` (single isomer, unassigned) [Example 16-46, (M)-2-[4-[4-(aminomethyl)-8-methyl-1-oxo-2H-phthalazin-6-yl]-2-methyl-pyrazol-3-yl]-4-chloro-6-(cyclopropoxy)-3-fluoro-benzonitrile], the IC50 in assay [1] is 41.9 nM; in assay [2], 7 nM; in assay [3], 6 nM.

On to `Cc1cc(OC2CC2)c(C#N)c(-c2c(-c3cc(C)c4c(=O)[nH]nc(CN)c4c3)cnn2C)c1F` (single isomer, unassigned) [Example 16-44, (M)-2-(4-(4-(aminomethyl)-8-methyl-1-oxo-1,2-dihydrophthalazin-6-yl)-1-methyl-1H-pyrazol-5-yl)-6-cyclopropoxy-3-fluoro-4-methylbenzonitrile], for which the figures for the IC50 in assay [1], in assay [2] and in assay [3] were 69.5 nM, 20 nM and 13 nM, respectively.

For `Cn1ncc(-c2cc(Cl)c3c(=O)[nH]nc(CN)c3c2)c1-c1c(C#N)cc2ccccc2c1Cl` (single isomer, unassigned) [Example 16-63, (P)-3-[4-[4-(aminomethyl)-8-chloro-1-oxo-2H-phthalazin-6-yl]-2-methyl-pyrazol-3-yl]-4-chloro-naphthalene-2-carbonitrile], the IC50 amounted to 341 nM in assay [1], 859 nM in assay [2] and 437 nM in assay [3].

As for `Cc1cc(-c2cnn(C)c2-c2c(F)cc3ccccc3c2C#N)cc2c(CN)n[nH]c(=O)c12` (single isomer, unassigned) [Example 16-15, (P)-2-[4-[4-(aminomethyl)-8-methyl-1-oxo-2H-phthalazin-6-yl]-2-methyl-pyrazol-3-yl]-3-fluoro-naphthalene-1-carbonitrile], the IC50 in assay [1] came out at 95 nM; in assay [2] it was 33 nM; in assay [3], 17 nM.
